# According to patent publication US10500146B2, “Composition for skin whitening comprising amorphigeni as effective ingredient” (INDUSTRY-ACADEMIC COOPERATION FOUNDATION GYEONGSANG …, priority 2015, dated 2019):
# Tests used:
# Type in all cases: cell-based
# [1] = system: B16F10 mouse melanoma cells; experiment: Cell cycle measurement, PI staining, flow cytometer; conditions: FIG. 3
# [2] = system: B16F10 mouse melanoma cells; experiment: Measurement of melanin content
# Description: Measurement of melanin content was carried out by slightly modifying the method by Yang et al. (Yang et al., 2006, Acta pharmacologica Sinica 27, 1467-73). Specifically, B16F10 cells were inoculated into a 6-well plate and cultured for 24 hours. Thereafter, the cells were treated with amorphigeni and α-MSH, each at 1 μM, followed by culture for 48 hours. The cultured cells were collected after being subjected to trypsinization and dissolution in 1 N NaOH containing DMSO for 24 hours at 65° C. By using a microplate reader (Bio-Rad), melanin content was measured at 415 nm.
# In order to see whether or not amorphigeni can suppress the pigmentation induced by α-MSH (melanocyte-stimulating hormone), B16F10 cells were treated with α-MSH and amorphigeni, either separately or simultaneously, followed by incubation for 72 hours. […] Namely, it was able confirm that, by reducing melanin content, amorphigeni of the present invention can suppress […].
# Furthermore, after treating B16F10 melanin cells with α-MSH, amorphigeni, and 3MA all together for 48 hours, the melanin content and oxidation level of L-DOPA were measured (***P≤0.001).
# In order to confirm whether or not amorphigeni causes degradation of melanosomes which have been previously produced by α-MSH, B16F10 melanin cells were treated for 48 hours with α-MSH to have synthesis of melanosomes. Thereafter, the cells were treated with amorphigeni for 48 hours, and melanin content was measured.
# Furthermore, in order to see whether or not amorphigeni causes degradation of previously produced melanosomes via autophagy, B16F10 melanin cells were treated with α-MSH for 48 hours to have synthesis of melanosome. After that, the cells were treated with 3MA as an autophagy inhibitor for 48 hours. Then, the melanin content and protein expression level of tyrosinase and PMEL were measured (ns=no significance, *P≤0.05, **P≤0.01, ***P≤0.001).
# [3] = system: B16F10 mouse melanoma cells; experiment: Cell viability (MTT analysis); conditions: amorphigeni at 100 nM and 1600 nM, 24 hours, FIG. 2
# Description: B16F10 cells were cultured for 24 hours in a 96-well plate. Thereafter, they were treated with amorphigeni at various concentrations, and cultured for 24 hours. Subsequently, a MTT solution (5 μg/mL) was added to the cells, which were then cultured for 3 hours. After removing the medium and treating the cells with DMSO, the cells were cultured for 20 minutes. By using a microplate reader (Bio-Rad), absorbance at 595 nm was measured.
# In Example 1, to find out functional plant metabolites which induce depigmentation in melanin cells, amorphigeni was isolated from roots of Amorpha fruticosa (FIG. 1). To determine the cytotoxicity of amorphigeni, B16F10 cells were treated with amorphigeni at various concentrations followed by culture for 24 hours. Then, based on MTT (3-(4,5-dimethylthiazol-2-yl)-2,5-diphenyltetrazolium bromide) analysis, cell viability was determined.
structure (smiles),measurement,setting,value
C=C(CO)C1Cc2c(ccc3c2OC2COc4cc(OC)c(OC)cc4C2C3=O)O1 (stereo not drawn) [amorphigeni],"cell death (cell cycle, PI staining)",[1],without inducing any cell death
same,content of the previously formed melanin,"[2]; α-MSH 48 hours, then amorphigeni 48 hours, FIG. 10",effectively lowered
same,melanin content (previously formed),"[2]; α-MSH 48 hours, then amorphigeni and 3MA 48 hours, versus α-MSH and amorphigeni, FIG. 11",increased again
same,melanin content,"[2]; α-MSH and amorphigeni together versus α-MSH only, 72 hours, FIG. 4A",tend to decease
same,melanin content,"[2]; α-MSH, amorphigeni and 3MA together, 48 hours, versus α-MSH and amorphigeni, FIG. 9A",increased again
same,"cytotoxicity (cell viability, MTT)",[3],low cytotoxicity
